Where two headings read alike, the source gives them in different places.
Assays:
[1] = Precursor solubility in the liquid phase (2:1 nonionic surfactant blend Vista NI and Synperonic A3), by GC (TAED) and HPLC (rest)
[2] = Storage stability of precursor and percarbonate in the non-aqueous liquid formulation of Example 1; conditions: Example 1 formulation, after storage for 8 weeks at ambient temperature
[3] = 2:1 nonionic surfactant combination (Vista NI and Synperonic A3), ambient temperature
[4] = 2:1 nonionic surfactant combination (Vista NI and Synperonic A3), ambient temperature, molar solubility multiplied by number of active groups

% w/w dissolved [1, 3] [% w/w]	mmol% active groups dissolved [1, 4] [mmol%]	stability precursor [2] [% **)]	Compound	% w/w dissolved [1] [% w/w]	mmol% active groups dissolved [1] [mmol%]
			2-(N,N,N-trimethylammonium)ethyl sodium 4-sulphophenyl carbonate [Compound B]	<0.025	<0.08
<0.05	<0.14	88	C[N+](C)(C)Cc1ccc(C(=O)Oc2ccc(S(=O)(=O)[O-])cc2)cc1 [Compound A, 1-[4-(N,N,N-trimethylammoniummethyl)benzoyloxy] benzene-4-sulphonate]		
<0.01	<0.03		C[N+](C)(C)c1ccc(C(=O)Oc2ccc(S(=O)(=O)[O-])cc2)cc1 [Compound E]		
